Data taken from patent publication US10227361B2, “Fused imidazobenzothiazole compounds” (TORRENT PHARMACEUTICALS LIMITED, priority 2014, dated 2019).

Each compound was assayed against T1, purified recombinant human p38 alpha MAPK (Homo sapiens, UniProt Q16539) (assay: Inhibition of p38 alpha MAPK activity: TR-FRET kinase assay). Conditions: Concentration 100 nM; read-out: P38α Inhibition.
T1 construct: purchased Millipore, USA
Format: biochemical
Experimental: Inhibition of p38 Alpha MAPK Activity: Time-Resolved Fluorescence Resonance Energy Transfer Kinase Standard Assay (TR-FRET Assay)
Compounds of present invention at various concentrations were premixed with DMSO. The experiment was initiated by mixing 0.5% 1.0% DMSO as vehicle/compounds with purified recombinant human p38 alpha MAPK (Millipore, USA) in the wells and 15 min incubation at RT. Thereafter, 30 nM of Biotinylated GST-ATF2 (Activation Transcription Factor2) and 100 μM of ATP were added in to the wells containing reaction mixture, followed by reincubation for 60 minutes at RT. Reaction was terminated by addition of 10 mM of EDTA and detection reagent containing anti-phosphothreonine ATF2 antibody (Perkin Elmer, USA) labelled with europium chelate and APC (Allophycocyanin) labeled streptavidin, into the reaction mixture which was further incubated for 60 minutes at room temperature. The degree of phosphorylation of the substrate (GST-ATF2) was measured using Envision multimode reader (Perkin Elmer). Percentage inhibition of p38 kinase activity was calculated by determining ratio of specific europium 665 nm energy transfer signal to reference 615 nm signal.

T1 sequence (Q16539 whole entry): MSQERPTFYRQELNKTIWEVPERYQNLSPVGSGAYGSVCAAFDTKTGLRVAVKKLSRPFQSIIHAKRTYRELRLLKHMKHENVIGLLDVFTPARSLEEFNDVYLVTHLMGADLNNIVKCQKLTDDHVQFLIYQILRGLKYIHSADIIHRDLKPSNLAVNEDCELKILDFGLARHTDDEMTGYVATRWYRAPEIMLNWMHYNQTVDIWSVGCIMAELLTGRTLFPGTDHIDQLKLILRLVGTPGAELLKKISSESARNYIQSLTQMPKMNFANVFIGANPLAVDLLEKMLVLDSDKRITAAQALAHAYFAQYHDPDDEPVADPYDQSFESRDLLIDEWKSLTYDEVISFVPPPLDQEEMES

How did the inhibition at 0.1 µM turn out when `CCOC(=O)c1cnc2sc3cc(Oc4ccccc4CNC(=O)Nc4cc(C(C)(C)C)nn4-c4ccc(O)c(Cl)c4)ccc3n12` [Compound 25, ethyl 7-{2-[({[3-tert-butyl-1-(3-chloro-4-hydroxyphenyl)-1H-pyrazol-5-yl]carbamoyl}amino)methyl]phenoxy}imidazo[2,1-b][1,3]benzothiazole-3-carboxylate] was run?
The inhibition at 0.1 µM was 60 to 80%.

Same assay, conditions: Concentration 1 μM; read-out: P38α Inhibition

Which inhibition at 1 µM does the source give for `CCOC(=O)c1cnc2sc3cc(Oc4ccc(NC(=O)Nc5cc(C(C)(C)C)nn5-c5ccc(O)c(Cl)c5)cc4)ccc3n12` [Compound 26, ethyl 7-[4-({[3-tert-butyl-1-(3-chloro-4-hydroxyphenyl)-1H-pyrazol-5-yl]carbamoyl}amino)phenoxy]imidazo[2,1-b][1,3]benzothiazole-3-carboxylate] here?
The inhibition at 1 µM was at most 20%.

`CC(C)(C)c1cc(NC(=O)Nc2ccc(Oc3ccc4c(c3)sc3ncc(CO)n34)cc2)n(-c2ccc(O)c(Cl)c2)n1` [Compound 27, 1-[3-tert-butyl-1-(3-chloro-4-hydroxyphenyl)-1H-pyrazol-5-yl]-3-(4-{[3-(hydroxymethyl)imidazo[2,1-b][1,3]benzothiazol-7-yl]oxy}phenyl)urea] was tested. Which inhibition at 1 µM did it give?
Its inhibition at 1 µM is 60 to 80%.

`CN(CCO)C(=O)c1cnc2sc3cc(Oc4ccccc4CNC(=O)Nc4cc(C(C)(C)C)nn4-c4ccc(O)c(Cl)c4)ccc3n12` [Compound 28, 7-{2-[({[3-tert-butyl-1-(3-chloro-4-hydroxyphenyl)-1H-pyrazol-5-yl]carbamoyl}amino)methyl]phenoxy}-N-(2-hydroxyethyl)-N-methylimidazo[2,1-b][1,3]benzothiazole-3-carboxamide] was tested. Which inhibition at 1 µM did it give?
Its inhibition at 1 µM is 80 to 100%.

Which inhibition at 1 µM does the source give for `CC(C)(C)c1cc(NC(=O)NCc2ccccc2Oc2ccc3c(c2)sc2ncc(CN4CCSCC4)n23)n(-c2ccc(O)c(Cl)c2)n1` [Compound 29, 1-[3-tert-butyl-1-(3-chloro-4-hydroxyphenyl)-1H-pyrazol-5-yl]-3-(2-{[3-(thiomorpholin-4-ylmethyl)imidazo[2,1-b][1,3]benzothiazol-7-yl]oxy}benzyl)urea] here?
Its inhibition at 1 µM is 80 to 100%.

Which inhibition at 1 µM does the source give for `CCOC(=O)CSCc1cn2c(n1)sc1cc(Oc3ccccc3CNC(=O)Nc3cc(C(C)(C)C)nn3-c3ccc(O)c(Cl)c3)ccc12` [Compound 30, ethyl {[(7-{2-[({[3-tert-butyl-1-(3-chloro-4-hydroxyphenyl)-1H-pyrazol-5-yl]carbamoyl}amino)methyl]phenoxy}imidazo[2,1-b][1,3]benzothiazol-2-yl)methyl]sulfanyl}acetate] here?
Its inhibition at 1 µM is 80 to 100%.

How did the inhibition at 1 µM turn out when `CC(C)(C)c1cc(NC(=O)NCc2ccccc2Oc2ccc3c(c2)sc2ncc(CN4CCOCC4)n23)n(-c2ccc(O)c(Cl)c2)n1` [Compound 35, 1-[3-tert-butyl-1-(3-chloro-4-hydroxyphenyl)-1H-pyrazol-5-yl]-3-(2-{[3-(morpholin-4-ylmethyl)imidazo[2,1-b][1,3]benzothiazol-7-yl]oxy}benzyl)urea] was run?
Its inhibition at 1 µM is 80 to 100%.

How did the inhibition at 1 µM turn out when `COCc1c(C)nc2sc3cc(Oc4ccccc4CNC(=O)Nc4cc(C(C)(C)C)nn4-c4ccc(O)c(Cl)c4)ccc3n12` [Compound 37, 1-[3-tert-butyl-1-(3-chloro-4-hydroxyphenyl)-1H-pyrazol-5-yl]-3-(2-{[3-(methoxymethyl)-2-methylimidazo[2,1-b][1,3]benzothiazol-7-yl]oxy}benzyl)urea] was run?
The inhibition at 1 µM was 80 to 100%.

With `Cc1nc2sc3cc(Oc4ccccc4CNC(=O)Nc4cc(C(C)(C)C)nn4-c4ccc(O)c(Cl)c4)ccc3n2c1CN1CCOCC1` [Compound 40, 1-[3-tert-butyl-1-(3-chloro-4-hydroxyphenyl)-1H-pyrazol-5-yl]-3-(2-{[2-methyl-3-(morpholin-4-ylmethyl)imidazo[2,1-b][1,3]benzothiazol-7-yl]oxy}benzyl)urea] as the compound, how does the inhibition at 1 µM read?
Its inhibition at 1 µM is 80 to 100%.

How did the inhibition at 1 µM turn out when `O=C(Nc1ccc(Oc2ccc3c(c2)sc2ncc(C(=O)O)n23)cc1)NC(CO)c1ccccc1` (stereo not drawn) [Compound 41, 7-(4-{[(2-hydroxy-1-phenylethyl)carbamoyl]amino}phenoxy)imidazo[2,1-b][1,3]benzothiazole-3-carboxylic acid] was run?
The inhibition at 1 µM was at most 20%.

With `CCOC(=O)c1cnc2sc3cc(Oc4ccccc4CNC(=O)NC(CO)c4ccccc4)ccc3n12` (stereo not drawn) [Compound 42, ethyl 7-[2-({[(2-hydroxy-1-phenylethyl)carbamoyl]amino}methyl)phenoxy]imidazo[2,1-b][1,3]benzothiazole-3-carboxylate] as the compound, how does the inhibition at 1 µM read?
Its inhibition at 1 µM is at most 20%.

Which inhibition at 1 µM does the source give for `CCOC(=O)c1cnc2sc3cc(Oc4ccc(NC(=O)Nc5c(-c6ccccc6)noc5C)cc4)ccc3n12` [Compound 43, ethyl 7-(4-{[(5-methyl-3-phenyl-1,2-oxazol-4-yl)carbamoyl]amino}phenoxy)imidazo[2,1-b][1,3]benzothiazole-3-carboxylate] here?
Its inhibition at 1 µM is at most 20%.

How did the inhibition at 1 µM turn out when `CCOC(=O)c1cnc2sc3cc(Oc4ccccc4CNC(=O)Nc4ccc(OC)c(Cl)c4)ccc3n12` [Compound 44, ethyl 7-[2-({[(3-chloro-4-methoxyphenyl)carbamoyl]amino}methyl)phenoxy]imidazo[2,1-b][1,3]benzothiazole-3-carboxylate] was run?
Its inhibition at 1 µM is 40 to 60%.

`CCOC(=O)c1cnc2sc3cc(Oc4ccccc4CNC(=O)Nc4cc(OC)cc(OC)c4)ccc3n12` [Compound 45, ethyl 7-[2-({[(3,5-dimethoxyphenyl)carbamoyl]amino}methyl)phenoxy]imidazo[2,1-b][1,3]benzothiazole-3-carboxylate] was tested. Which inhibition at 1 µM did it give?
The inhibition at 1 µM was at most 20%.

`CCOC(=O)c1cnc2sc3cc(Oc4ccccc4CNC(=O)NC4CCCCC4)ccc3n12` [Compound 46, ethyl 7-(2-{[(cyclohexylcarbamoyl)amino]methyl}phenoxy)imidazo[2,1-b][1,3]benzothiazole-3-carboxylate] was tested. Which inhibition at 1 µM did it give?
Its inhibition at 1 µM is at most 20%.

`CCOC(=O)c1cnc2sc3cc(Oc4ccc(NC(=O)Nc5ccc(Cl)c(C(F)(F)F)c5)cc4)ccc3n12` [Compound 47, ethyl 7-[4-({[4-chloro-3-(trifluoromethyl)phenyl]carbamoyl}amino)phenoxy]imidazo[2,1-b][1,3]benzothiazole-3-carboxylate] was tested. Which inhibition at 1 µM did it give?
The inhibition at 1 µM was at most 20%.

With `COCc1c(C)nc2sc3cc(Oc4ccccc4CNC(=O)Nc4ccc(OC)c(Cl)c4)ccc3n12` [Compound 48, 1-(3-chloro-4-methoxyphenyl)-3-(2-{[3-(methoxymethyl)-2-methylimidazo[2,1-b][1,3]benzothiazol-7-yl]oxy}benzyl)urea] as the compound, how does the inhibition at 1 µM read?
Its inhibition at 1 µM is 60 to 80%.

With `COCc1c(C)nc2sc3cc(Oc4ccccc4CNC(=O)Nc4ccc(Cl)c(C(F)(F)F)c4)ccc3n12` [Compound 49, 1-[4-chloro-3-(trifluoromethyl)phenyl]-3-(2-{[3-(methoxymethyl)-2-methylimidazo[2,1-b][1,3]benzothiazol-7-yl]oxy}benzyl)urea] as the compound, how does the inhibition at 1 µM read?
Its inhibition at 1 µM is 80 to 100%.

`COCc1c(C)nc2sc3cc(Oc4ccccc4CNC(=O)Nc4cc(C(C)(C)C)no4)ccc3n12` [Compound 50, 1-(3-tert-butyl-1,2-oxazol-5-yl)-3-(2-{[3-(methoxymethyl)-2-methylimidazo[2,1-b][1,3]benzothiazol-7-yl]oxy}benzyl)urea] was tested. Which inhibition at 1 µM did it give?
Its inhibition at 1 µM is 80 to 100%.

`CC(C)(C)c1cc(NC(=O)NCc2ccccc2Oc2ccc3c(c2)sc2ncc(COCC4CC4)n23)n(-c2ccc(O)c(Cl)c2)n1` [Compound 56, 1-[3-tert-butyl-1-(3-chloro-4-hydroxyphenyl)-1H-pyrazol-5-yl]-3-[2-({3-[(cyclopropylmethoxy)methyl]imidazo[2,1-b][1,3]benzothiazol-7-yl}oxy)benzyl]urea] was tested. Which inhibition at 1 µM did it give?
The inhibition at 1 µM was 60 to 80%.

How did the inhibition at 1 µM turn out when `Cc1cnc(-c2cnc3sc4cc(Oc5ccccc5CNC(=O)Nc5cc(C(C)(C)C)nn5-c5ccc(O)c(Cl)c5)ccc4n23)o1` [Compound 64, 1-[3-tert-butyl-1-(3-chloro-4-hydroxyphenyl)-1H-pyrazol-5-yl]-3-(2-{[3-(5-methyl-1,3-oxazol-2-yl)imidazo[2,1-b][1,3]benzothiazol-7-yl]oxy}benzyl)urea] was run?
Its inhibition at 1 µM is 60 to 80%.

How did the inhibition at 1 µM turn out when `CC(C)(C)c1cc(NC(=O)NCc2ccccc2Oc2ccc3c(c2)sc2ncc(CN4CCC(O)CC4)n23)n(-c2ccc(O)c(Cl)c2)n1` [Compound 65, 1-[3-tert-butyl-1-(3-chloro-4-hydroxyphenyl)-1H-pyrazol-5-yl]-3-[2-({3-[(4-hydroxypiperidin-1-yl)methyl]imidazo[2,1-b][1,3]benzothiazol-7-yl}oxy)benzyl]urea] was run?
The inhibition at 1 µM was 60 to 80%.

`CCOC(=O)c1cnc2sc3cc(Oc4ccccc4CNC(=O)Nc4cc(C(C)(C)C)nn4-c4ccccc4)ccc3n12` [Compound 67, ethyl 7-[2-({[(3-tert-butyl-1-phenyl-1H-pyrazol-5-yl)carbamoyl]amino}methyl)phenoxy]imidazo[2,1-b][1,3]benzothiazole-3-carboxylate] was tested. Which inhibition at 1 µM did it give?
The inhibition at 1 µM was 60 to 80%.

Which inhibition at 1 µM does the source give for `COc1c(NC(=O)NCc2ccccc2Oc2ccc3c(c2)sc2ncc(CN4CCOCC4)n23)cc(C(C)(C)C)cc1NS(C)(=O)=O` [Compound 74, N-(5-tert-butyl-2-methoxy-3-{[(2-{[3-(morpholin-4-ylmethyl)imidazo[2,1-b][1,3]benzothiazol-7-yl]oxy}benzyl)carbamoyl]amino}phenyl) methanesulfonamide] here?
The inhibition at 1 µM was 60 to 80%.
